According to patent US8957062B2, “Substituted cyclopropyl compounds, compositions containing such compounds and methods of treatment” (Merck Sharp & Dohme Corp., priority 2011, dated 2015):

biological target: T1, human GPR119 (Homo sapiens, UniProt Q8TDV5); experiment: Measurement of GPR119 signaling (cAMP assay) in cells stably transfected with human GPR119; format: cell-based; conditions: cAMP stimulation; read-out: GPR119 HumC EC50
T1 sequence (Q8TDV5 1-308 limits assumed): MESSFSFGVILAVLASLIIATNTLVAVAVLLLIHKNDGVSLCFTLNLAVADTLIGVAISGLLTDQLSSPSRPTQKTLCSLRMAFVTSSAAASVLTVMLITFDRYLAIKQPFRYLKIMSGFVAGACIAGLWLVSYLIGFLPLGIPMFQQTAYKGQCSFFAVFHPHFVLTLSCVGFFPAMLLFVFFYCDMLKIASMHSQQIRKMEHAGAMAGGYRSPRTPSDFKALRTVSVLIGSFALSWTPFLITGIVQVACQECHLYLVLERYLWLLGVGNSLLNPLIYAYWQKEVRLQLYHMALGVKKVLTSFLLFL

EC50 [nM]	SMILES
8.5	CC1(OC(=O)N2CCC([C@H]3C[C@H]3CCOc3ccc(CC(=O)N4CCOCC4)c(F)c3)CC2)CC1 [Example 67]
1.1	Cc1cc(OCC[C@@H]2C[C@@H]2C2CCN(c3nc(C(C)C)no3)CC2)ccc1CC(=O)N1CCC1 [Example 102]

same assay, conditions: stated in the example text without 'GPR119'; read-out: Human EC50

EC50 [nM]	SMILES
5.3	CC(C)c1noc(N2CCC([C@H]3C[C@H]3CCOc3ccc(CC(=O)N4CCC4)cc3F)CC2)n1 [Example 101, 4-((1R,2S)-2-{2-[4-(2-azetidin-1-yl-2-oxoethyl)-2-fluorophenoxy]ethyl}cyclopropyl)-1-(3-isopropyl-1,2,4-oxadiazol-5-yl)piperidine]

same assay, conditions: stated in the example text; cAMP stimulation, human GPR119; read-out: GPR119 Human EC50

EC50 [nM]	SMILES
1.8	CC(C)c1noc(N2CCC([C@H]3C[C@H]3CCOc3ccc(CC(=O)N4CCC4)cc3)CC2)n1 [Example 99, 4-[(1R,2S)-2-{2-[4-(2-azetidin-1-yl-2-oxoethyl)phenoxy]ethyl}cyclopropyl]-1-[3-(1-methylethyl)-1,2,4-oxadiazol-5-yl]piperidine]
5.8	COCc1noc(N2CCC([C@H]3C[C@H]3CCOc3ccc(CC(=O)N4CCC4)c(F)c3)CC2)n1 [Example 115, 4-[(1R,2S)-2-{2-[4-(2-azetidin-1-yl-2-oxoethyl)-3-fluorophenoxy]ethyl}cyclopropyl]-1-[3-(methoxymethyl)-1,2,4-oxadiazol-5-yl]piperidine]
28	CCCCc1nnc(N2CCC([C@H]3C[C@H]3CCOc3ccc(S(C)(=O)=O)cn3)CC2)o1 [Example 247, 2-(2-{(1S,2R)-2-[1-(5-butyl-1,3,4-oxidiazol-2-yl)piperidin-4-yl]cyclopropyl}ethoxy)-5-(methylsulfonyl)pyridine]
3.5	CC(C)OC(=O)N1CCC([C@H]2C[C@H]2CCOc2cc(F)c(C(=O)NC3CC3)c(F)c2)CC1 [Example 58]
0.3	CS(=O)(=O)c1ccc(OCC[C@@H]2C[C@@H]2C2CCN(C(=O)OCC3CC3)CC2)nc1 [Example 13, cyclopropylmethyl 4-((1R,2S)-2-(2-(5-(methylsulfonyl)pyridin-2-yloxy)ethyl)cyclopropyl)piperidine-1-carboxylate]
4.7	CC1(OC(=O)N2CCC([C@H]3C[C@H]3CCOc3ccc(CC(=O)N4CCCC4)cc3)CC2)CC1 [Example 56]
0.4	CC(C)c1noc(N2CCC([C@H]3C[C@H]3CCOc3ccc(CC(=O)N4CC(F)C4)c(F)c3)CC2)n1 [Example 100, 4-[(1R,2S)-2-(2-{3-fluoro-4-[2-(3-fluoroazetidin-1-yl)-2-oxoethyl]phenoxy}ethyl)cyclopropyl]-1-(3-isopropyl-1,2,4-oxadiazol-5-yl)piperidine]
1.6	CC(C)COC(=O)N1CCC([C@H]2C[C@H]2CCOc2ccc(-n3cnnn3)cc2)CC1 [Example 1, isobutyl 4-((1R,2S)-2-(2-(4-(1H-tetrazol-1-yl)phenoxy)ethyl)cyclopropyl)piperidine-1-carboxylate]

same assay, conditions: table column; cAMP stimulation, human GPR119; read-out: GPR119 Human EC50

SMILES	EC50 [nM]
COc1cc(OCC[C@@H]2C[C@@H]2C2CCN(c3nc(C(C)C)no3)CC2)ccc1-n1cnnn1 [Example 125]	11
COCc1nc(N2CCC([C@H]3C[C@H]3CCOc3ccc(S(C)(=O)=O)cn3)CC2)no1 [Example 245]	8.1
CC(C)c1noc(N2CCC([C@H]3C[C@H]3CCOc3ccc(CC(=O)N4CC(n5ccnc5)C4)c(F)c3)CC2)n1 [Example 188]	6.4
CC1(c2nc(N3CCC([C@H]4C[C@H]4CCOc4ccc(S(C)(=O)=O)cn4)CC3)no2)CC1 [Example 240]	5.2
CS(=O)(=O)c1ccc(OCC[C@@H]2C[C@@H]2C2CCN(c3noc(CCC(F)(F)F)n3)CC2)nc1 [Example 237]	18
CC(C)c1noc(N2CCC([C@H]3C[C@H]3CCOc3cc(F)c(C(=O)NC(C)(C)CO)c(F)c3)CC2)n1 [Example 122]	10
COCc1noc(N2CCC([C@H]3C[C@H]3CCOc3ccc(-n4cncn4)cc3)CC2)n1 [Example 223]	7.2
CS(=O)(=O)c1ccc(OCC[C@@H]2C[C@@H]2C2CCN(c3nc(COCC(F)(F)F)no3)CC2)nc1 [Example 217]	7.8
COC(C)c1noc(N2CCC([C@H]3C[C@H]3CCOc3ccc(S(C)(=O)=O)cn3)CC2)n1 (stereo partly shown) [Example 215]	5.8
CC(C)OC(=O)N1CCC([C@H]2C[C@H]2CCOc2ccc(S(C)(=O)=O)cn2)CC1 [Example 16]	46
CC(C)OC(=O)N1CCC([C@H]2C[C@H]2CCOc2cc(F)c(S(C)(=O)=O)c(F)c2)CC1 [Example 39]	6.6
CC(C)c1noc(N2CCC([C@H]3C[C@H]3CCOc3ccc(CC(=O)N4CCn5nc(C(F)(F)F)nc5C4C)c(F)c3)CC2)n1 (stereo partly shown) [Example 178]	14
CC1(OC(=O)N2CCC([C@H]3C[C@H]3CCOc3ccc(S(C)(=O)=O)cn3)CC2)CC1 [Example 24]	4.2

The next lines start with the values.

EC50 [nM]	SMILES
2.3	COCc1noc(N2CCC([C@H]3C[C@H]3CCOc3ncc(-n4cnnn4)cc3C)CC2)n1 [Example 226]
0.9	COC(C)c1noc(N2CCC([C@H]3C[C@H]3CCOc3ncc(-n4cnnn4)cc3C)CC2)n1 (stereo partly shown) [Example 227]
1.7	CC(C)c1noc(N2CCC([C@H]3C[C@H]3CCOc3ccc(CC(=O)N4CCCCC4)c(F)c3)CC2)n1 [Example 145]
0.9	COCc1noc(N2CCC([C@H]3C[C@H]3CCOc3ccc(S(C)(=O)=O)c(F)c3)CC2)n1 [Example 222]
0.6	CC1(COC(=O)N2CCC([C@H]3C[C@H]3CCOc3ccc(S(C)(=O)=O)cn3)CC2)CC1 [Example 23]
1.5	CC(C)OC(=O)N1CCC([C@H]2C[C@H]2CCOc2ccc(-n3cnnn3)cc2)CC1 [Example 11]
0.4	Cc1nc(C#N)cc(OCC[C@@H]2C[C@@H]2C2CCN(c3nc(C(C)C)no3)CC2)n1 [Example 118]
0.1	CCCC(=O)c1c(F)cc(OCC[C@@H]2C[C@@H]2C2CCN(c3nc(C(C)C)no3)CC2)cc1F [Example 121]
2.6	CC(C)c1noc(N2CCC([C@H]3C[C@H]3CCOc3ccc(CC(=O)N(C)Cc4cscn4)c(F)c3)CC2)n1 [Example 166]
3.8	CC(C)c1noc(N2CCC([C@H]3C[C@H]3CCOc3ccc(S(C)(=O)=O)cc3F)CC2)n1 [Example 123]
0.93	COC1CN(C(=O)Cc2ccc(OCC[C@@H]3C[C@@H]3C3CCN(c4nc(C(C)C)no4)CC3)cc2F)C1 [Example 141]
3.7	CC(C)c1noc(N2CCC([C@H]3C[C@H]3CCOc3ccc(CC(=O)N4CCc5cccnc5C4)c(F)c3)CC2)n1 [Example 181]
2	COCc1noc(N2CCC([C@H]3C[C@H]3CCOc3ccc(CC(=O)N4CC(F)C4)c(F)c3)CC2)n1 [Example 199]
1.3	CC(C)c1noc(N2CCC([C@H]3C[C@H]3CCOc3ccc(S(C)(=O)=O)c(F)c3)CC2)n1 [Example 119]
3.9	CCN(CC)C(=O)Cc1ccc(OCC[C@@H]2C[C@@H]2C2CCN(c3nc(C(C)C)no3)CC2)cc1 [Example 136]
0.3	CC1(OC(=O)N2CCC([C@H]3C[C@H]3CCOc3ccc(-n4cnnn4)cc3)CC2)CCC1 [Example 10]
